Results as given in patent publication US20090291915A1, “Silicon Compounds and Their Use” (priority 2001, published 2009).

melting point: 80 to 82 °C
Compound: COc1nc(NCCCN2CCOCC2)nc(OC)c1NC(=O)c1ccc(Oc2cncc([Si](C)(C)C)c2)o1
